According to BindingDB's records for doi:10.3109/14756366.2010.529807 (University of Ioannina, 2011):

Each molecule was assayed against T1, Seed linoleate 13S-lipoxygenase-1 (Glycine max, UniProt P08170) (assay: LOX Activity Assay). Conditions: 25 °C.
T1 sequence (P08170 whole entry): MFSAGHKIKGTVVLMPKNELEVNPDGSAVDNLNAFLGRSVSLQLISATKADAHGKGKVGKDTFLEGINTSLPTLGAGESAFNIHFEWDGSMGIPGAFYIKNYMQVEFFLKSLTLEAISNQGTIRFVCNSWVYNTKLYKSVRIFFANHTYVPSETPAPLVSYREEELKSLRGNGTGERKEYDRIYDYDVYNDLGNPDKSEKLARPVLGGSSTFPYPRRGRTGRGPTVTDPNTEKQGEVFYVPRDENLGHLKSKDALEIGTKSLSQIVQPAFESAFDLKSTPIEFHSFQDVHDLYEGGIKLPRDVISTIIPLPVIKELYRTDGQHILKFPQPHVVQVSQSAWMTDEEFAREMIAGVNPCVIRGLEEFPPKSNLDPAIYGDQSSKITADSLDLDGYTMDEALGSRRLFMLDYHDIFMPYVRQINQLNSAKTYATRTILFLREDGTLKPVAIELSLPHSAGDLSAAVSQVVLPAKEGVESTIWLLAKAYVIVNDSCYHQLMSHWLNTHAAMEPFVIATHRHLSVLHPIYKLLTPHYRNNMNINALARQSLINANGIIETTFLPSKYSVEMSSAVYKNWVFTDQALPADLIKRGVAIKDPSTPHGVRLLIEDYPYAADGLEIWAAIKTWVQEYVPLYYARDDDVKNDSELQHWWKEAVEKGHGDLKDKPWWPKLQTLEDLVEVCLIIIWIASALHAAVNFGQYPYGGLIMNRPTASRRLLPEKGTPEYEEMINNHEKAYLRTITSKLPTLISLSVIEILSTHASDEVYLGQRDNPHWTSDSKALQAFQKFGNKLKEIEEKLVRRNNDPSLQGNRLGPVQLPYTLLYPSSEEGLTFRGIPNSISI
Procedure: Enzyme activity was monitored by UV analysis. 0.05 cm^3 of enzyme solution was added to a cuvette containing 2 cm^3 linoleic acid solution and the appropriate amounts of buffer and inhibitor solutions in thermostatic water bath at 25°C. There was no pre-incubation time of the enzyme with inhibitor solution. The activity of the enzyme was determined by monitoring the increase in the absorption caused by the oxidation of linoleic acid at 234 nm and 25°C (ε = 25 000 M^−1 cm^−1). One standard solution of complexes in DMSO (10^-2 M) was used for theinhibition activity experiments (three sets). In this case, the substrate concentration was kept constant (0.3 mM), while the amounts of buffer and inhibitor solutions varied according to the inhibitor final concentration needed(0.5-30 μM or 0.15-9 μL from standard solutions). The total experiment volume was 3 cm^3.

Row | Structure (SMILES) | IC50
1 | [Cl][Au][PH](c1ccccc1)(c1ccccc1)c1ccccc1 [[Au(tpp)Cl] (1)] | 1.2 µM
2 | c1ccc([PH]([Au][S]C2=NCCS2)(c2ccccc2)c2ccccc2)cc1 [[Au(tpp)(mtzd)] (2)] | 18.8 µM
3 | c1ccc([PH]([Au][S]c2nc3ccccc3s2)(c2ccccc2)c2ccccc2)cc1 [[Au(tpp)(mbzt)] (3)] | 39.4 µM
4 | Clc1ccc2sc([S][Au][PH](c3ccccc3)(c3ccccc3)c3ccccc3)nc2c1 [[Au(tpp)(Clmbzt)] (4)] | 16 µM
